Experimental data published in the supplement of paper PMC11451515.

Tested on: NOMO1
Test: cell viability relative to DMSO control; higher = less cytotoxic
Conditions: 48 h
How it was run: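 Three leukemia lines were tested: NOMO1 and SEM at 500 cells/well and P12-Ichikawa at 1000 cells/well. Each was adapted for at least four passages in each medium and seeded in 5 μl in 1536-well plates, and library compounds in DMSO were pin-dosed from 47 μM to 0.79 nM in 11 threefold steps. After 48 h at 37°C, CellTiter-Glo One luminescence was read. Viability is a percentage relative to DMSO wells on each plate, with cell-free wells as background.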

[1] = HPLM + 10% dialyzed FBS, 0.000781 µM
[2] = HPLM + 10% dialyzed FBS, 0.00234 µM
[3] = HPLM + 10% dialyzed FBS, 0.00702 µM
[4] = HPLM + 10% dialyzed FBS, 0.0211 µM
[5] = HPLM + 10% dialyzed FBS, 0.0632 µM
[6] = HPLM + 10% dialyzed FBS, 0.19 µM
[7] = HPLM + 10% dialyzed FBS, 0.569 µM
[8] = HPLM + 10% dialyzed FBS, 1.71 µM
[9] = HPLM + 10% dialyzed FBS, 5.12 µM
[10] = HPLM + 10% dialyzed FBS, 15.4 µM
[11] = HPLM + 10% dialyzed FBS, 46.1 µM
[12] = RPMI 5 mM glucose + 10% FBS, 0.000781 µM
[13] = RPMI 5 mM glucose + 10% FBS, 0.00234 µM
[14] = RPMI 5 mM glucose + 10% FBS, 0.00702 µM
[15] = RPMI 5 mM glucose + 10% FBS, 0.0211 µM
[16] = RPMI 5 mM glucose + 10% FBS, 0.0632 µM
[17] = RPMI 5 mM glucose + 10% FBS, 0.19 µM
[18] = RPMI 5 mM glucose + 10% FBS, 0.569 µM
[19] = RPMI 5 mM glucose + 10% FBS, 1.71 µM
[20] = RPMI 5 mM glucose + 10% FBS, 5.12 µM
[21] = RPMI 5 mM glucose + 10% FBS, 15.4 µM
[22] = RPMI 5 mM glucose + 10% FBS, 46.1 µM
[23] = RPMI 5 mM glucose + 10% dialyzed FBS, 0.000781 µM
[24] = RPMI 5 mM glucose + 10% dialyzed FBS, 0.00234 µM
[25] = RPMI 5 mM glucose + 10% dialyzed FBS, 0.00702 µM
[26] = RPMI 5 mM glucose + 10% dialyzed FBS, 0.0211 µM
[27] = RPMI 5 mM glucose + 10% dialyzed FBS, 0.0632 µM
[28] = RPMI 5 mM glucose + 10% dialyzed FBS, 0.19 µM
[29] = RPMI 5 mM glucose + 10% dialyzed FBS, 0.569 µM
[30] = RPMI 5 mM glucose + 10% dialyzed FBS, 1.71 µM
[31] = RPMI 5 mM glucose + 10% dialyzed FBS, 5.12 µM
[32] = RPMI 5 mM glucose + 10% dialyzed FBS, 15.4 µM
[33] = RPMI 5 mM glucose + 10% dialyzed FBS, 46.1 µM

`CC[C@]12CC[C@H]3[C@@H](CCC/4=C/C(=O)CC[C@H]34)[C@@H]1CC[C@@]2(O)C#C` gave a cell viability [1] of 100%, a cell viability [2] of 92.6% and a cell viability [3] of 101%. For the same compound, the cell viability [4] was 85.8%, the cell viability [5] was 97.1% and the cell viability [6] was 94.4%. The cell viability [7] was 86.6%, the cell viability [8] was 72.4% and the cell viability [9] was 89.2%. For the same compound, the cell viability [10] was 80.4%, the cell viability [11] was 69.8% and the cell viability [12] was 92.7%. It also gave a cell viability [13] of 78.8%, a cell viability [14] of 95% and a cell viability [15] of 88.5%. For the same compound, the cell viability [16] was 81.8%, the cell viability [17] was 75.1% and the cell viability [18] was 72.2%. For the same compound, the cell viability [19] was 76.3%, the cell viability [20] was 82.5% and the cell viability [21] was 73.5%. It also gave a cell viability [22] of 70.8%, a cell viability [23] of 82.1% and a cell viability [24] of 77.5%. The cell viability [25] was 77.7%, the cell viability [26] was 86.6% and the cell viability [27] was 75.4%. For the same compound, the cell viability [28] was 77.6%, the cell viability [29] was 79.7% and the cell viability [30] was 78.5%. For the same compound, the cell viability [31] was 74.1%, the cell viability [32] was 74.9% and the cell viability [33] was 84.5%.
Work on `O=S(=O)([O-])CCS.[Na+]` yielded a cell viability [1] of 100%, a cell viability [2] of 141% and a cell viability [3] of 124%. For the same compound, the cell viability [4] was 131%, the cell viability [5] was 130% and the cell viability [6] was 112%. It also gave a cell viability [7] of 123%, a cell viability [8] of 44.1% and a cell viability [9] of 38.9%. The cell viability [10] was 46.4% and the cell viability [11] was 37.5%.
With `COc1ccc(C(=O)c2c(C)n(CCN3CCOCC3)c3ccccc23)cc1` the cell viability [1] was 87.4%, the cell viability [2] was 99.9% and the cell viability [3] was 98.1%. For the same compound, the cell viability [4] was 108%, the cell viability [5] was 107% and the cell viability [6] was 129%. For the same compound, the cell viability [7] was 107%, the cell viability [8] was 104% and the cell viability [9] was 95.2%. It also gave a cell viability [10] of 90.2%, a cell viability [11] of 87.6% and a cell viability [12] of 91.7%. For the same compound, the cell viability [13] was 92.5%, the cell viability [14] was 94.4% and the cell viability [15] was 91.7%. It also gave a cell viability [16] of 85.4%, a cell viability [17] of 99.6% and a cell viability [18] of 82.9%. For the same compound, the cell viability [19] was 97.1%, the cell viability [20] was 95.7% and the cell viability [21] was 88.6%. For the same compound, the cell viability [22] was 93.7%, the cell viability [23] was 87.1% and the cell viability [24] was 84.2%. It also gave a cell viability [25] of 92.5%, a cell viability [26] of 88.5% and a cell viability [27] of 104%. The cell viability [28] was 76.9%, the cell viability [29] was 98.9% and the cell viability [30] was 92%. For the same compound, the cell viability [31] was 87.9%, the cell viability [32] was 86.6% and the cell viability [33] was 92%.
`COc1cc(Nc2c(C#N)cnc3cc(OCCCN4CCN(C)CC4)c(OC)cc23)c(Cl)cc1Cl` showed a cell viability [1] of 123%, a cell viability [2] of 121% and a cell viability [3] of 118%. For the same compound, the cell viability [4] was 111%, the cell viability [5] was 116% and the cell viability [6] was 105%. It also gave a cell viability [7] of 121%, a cell viability [8] of 83.6% and a cell viability [9] of 52.1%. For the same compound, the cell viability [10] was 9.63%, the cell viability [11] was 7.18% and the cell viability [12] was 109%. For the same compound, the cell viability [13] was 115%, the cell viability [14] was 126% and the cell viability [15] was 119%. For the same compound, the cell viability [16] was 126%, the cell viability [17] was 118% and the cell viability [18] was 112%. It also gave a cell viability [19] of 106%, a cell viability [20] of 82.4% and a cell viability [21] of 13.7%. It also gave a cell viability [22] of 7.22%, a cell viability [23] of 103% and a cell viability [24] of 105%. It also gave a cell viability [25] of 112%, a cell viability [26] of 113% and a cell viability [27] of 116%. For the same compound, the cell viability [28] was 114%, the cell viability [29] was 112% and the cell viability [30] was 120%. The cell viability [31] was 85.8%, the cell viability [32] was 26% and the cell viability [33] was 10.6%.
Compound `C[C@@H]1O[C@@H](O[C@H]2C[C@@H](O)[C@]3(CO)[C@H]4[C@H](O)C[C@]5(C)[C@@H](C6=CC(=O)OC6)CC[C@]5(O)[C@@H]4CC[C@]3(O)C2)[C@H](O)[C@H](O)[C@H]1O` has a cell viability [1] of 94.8%, a cell viability [2] of 104% and a cell viability [3] of 99%. It also gave a cell viability [4] of 81.8%, a cell viability [5] of 32.9% and a cell viability [6] of 14.5%. The cell viability [7] was 9.66%, the cell viability [8] was 8.1% and the cell viability [9] was 8.19%. For the same compound, the cell viability [10] was 8.12%, the cell viability [11] was 6.11% and the cell viability [12] was 93.1%. For the same compound, the cell viability [13] was 95.2%, the cell viability [14] was 109% and the cell viability [15] was 110%. The cell viability [16] was 95.3%, the cell viability [17] was 39.6% and the cell viability [18] was 13.6%. The cell viability [19] was 8.12%, the cell viability [20] was 8.09% and the cell viability [21] was 7.5%. For the same compound, the cell viability [22] was 5.41%, the cell viability [23] was 97.8% and the cell viability [24] was 109%. It also gave a cell viability [25] of 103%, a cell viability [26] of 117% and a cell viability [27] of 73.2%. For the same compound, the cell viability [28] was 30%, the cell viability [29] was 11.3% and the cell viability [30] was 6.76%. For the same compound, the cell viability [31] was 6.52%, the cell viability [32] was 6.15% and the cell viability [33] was 5.29%.
`O=C1\C=C/C=C2/[C@H]3CNC[C@H](C3)CN12` showed a cell viability [1] of 112%, a cell viability [2] of 125% and a cell viability [3] of 120%. The cell viability [4] was 111%, the cell viability [5] was 133% and the cell viability [6] was 126%. The cell viability [7] was 130%, the cell viability [8] was 129% and the cell viability [9] was 116%. The cell viability [10] was 97.9%, the cell viability [11] was 27.7% and the cell viability [12] was 105%. For the same compound, the cell viability [13] was 107%, the cell viability [14] was 124% and the cell viability [15] was 107%. It also gave a cell viability [16] of 110%, a cell viability [17] of 120% and a cell viability [18] of 112%. It also gave a cell viability [19] of 123%, a cell viability [20] of 111% and a cell viability [21] of 100%. The cell viability [22] was 46.9%, the cell viability [23] was 96.7% and the cell viability [24] was 98.4%. The cell viability [25] was 107%, the cell viability [26] was 109% and the cell viability [27] was 119%. The cell viability [28] was 118%, the cell viability [29] was 122% and the cell viability [30] was 112%. For the same compound, the cell viability [31] was 102%, the cell viability [32] was 104% and the cell viability [33] was 64.2%.
In the case of `C/C(=N\NC(=S)N1CCC1)c1ccccn1`, the cell viability [1] is reported as 104%, the cell viability [2] is reported as 76.1% and the cell viability [3] is reported as 48.5%. The cell viability [4] was 29.9%, the cell viability [5] was 20.8% and the cell viability [6] was 6.85%. For the same compound, the cell viability [7] was 5.67%, the cell viability [8] was 4.05% and the cell viability [9] was 2.98%. The cell viability [10] was 15.2%, the cell viability [11] was 5.74% and the cell viability [12] was 107%. The cell viability [13] was 96.5%, the cell viability [14] was 74.6% and the cell viability [15] was 15.3%. For the same compound, the cell viability [16] was 13%, the cell viability [17] was 7.95% and the cell viability [18] was 6.53%. For the same compound, the cell viability [19] was 8.3%, the cell viability [20] was 2.84% and the cell viability [21] was 13.7%. It also gave a cell viability [22] of 11.8%, a cell viability [23] of 99.3% and a cell viability [24] of 93.6%. The cell viability [25] was 37.7%, the cell viability [26] was 19.6% and the cell viability [27] was 17.9%. For the same compound, the cell viability [28] was 8.08%, the cell viability [29] was 6.69% and the cell viability [30] was 5.23%. The cell viability [31] was 2.95%, the cell viability [32] was 8.3% and the cell viability [33] was 13.1%.
`NC[C@@H]1O[C@H](O[C@H]2[C@@H](O)[C@H](O[C@@H]3[C@@H](O)[C@H](N)C[C@H](N)[C@H]3O[C@H]3O[C@H](CN)[C@@H](O)[C@H](O)[C@H]3N)O[C@@H]2CO)[C@H](N)[C@@H](O)[C@@H]1O.O=S(=O)(O)O.O=S(=O)(O)O.O=S(=O)(O)O` was tested, and the cell viability [1] was 103%, the cell viability [2] was 82.8% and the cell viability [3] was 110%. For the same compound, the cell viability [4] was 113%, the cell viability [5] was 101% and the cell viability [6] was 110%. For the same compound, the cell viability [7] was 110%, the cell viability [8] was 106% and the cell viability [9] was 107%. For the same compound, the cell viability [10] was 88.5%, the cell viability [11] was 92.9% and the cell viability [12] was 95.3%. The cell viability [13] was 105%, the cell viability [14] was 99.2% and the cell viability [15] was 107%. It also gave a cell viability [16] of 111%, a cell viability [17] of 107% and a cell viability [18] of 96.8%. It also gave a cell viability [19] of 108%, a cell viability [20] of 87.2% and a cell viability [21] of 98.5%. For the same compound, the cell viability [22] was 94.9%, the cell viability [23] was 92.2% and the cell viability [24] was 90.5%. It also gave a cell viability [25] of 86.8%, a cell viability [26] of 96.1% and a cell viability [27] of 96.5%. For the same compound, the cell viability [28] was 85.7%, the cell viability [29] was 92.8% and the cell viability [30] was 90.1%. The cell viability [31] was 89.9%, the cell viability [32] was 79.4% and the cell viability [33] was 83%.
